Data reported in patent US11773051B2, “S-enantiomers of beta-hydroxybutyrate and butanediol and methods for using same” (Buck Institute for Research on Aging, priority 2017, dated 2023).

Assays:
[1] = test system: T1, histone deacetylases (HDAC); assay: in vitro HDAC assay, commercial assay kit Fluor de Lys Green from Enzo; assay type: biochemical; conditions: sodium salt
T1 construct: other: sodium salt; same assay as S-BHB
Description: (§1) The activity of S-BHB and R-BHB enantiomers in inhibiting histone deacetylases was tested.
(§2) This is an in vitro HDAC assay performed using the sodium salt of S-BHB and R-BHB with a commercial assay kit, Fluor de Lys Green from Enzo.
(§3) Without being bound to a particular theory, it is believed the R-BHB might be being metabolized more rapidly than the S-BHB resulting in the diminished maximum inhibition.

[2] = test system: histone deacetylases (HDAC); assay: as above; assay type: biochemical; conditions: comparison with literature value
Description: as §1, §2, §3

| inhibition of deacetylase activity (result in words) ([1]; FIG. 2) | IC50 ([1]; FIG. 2, read-out: HDAC activity inhibition IC50) [mM] | Structure (SMILES) | maximum inhibition of HDAC activity ([1]; same assay as S-BHB, partial inhibition) | potency for HDAC inhibition relative to potency of R-BHB in a different, previously published assay (Shimazu et al. 2013) [2] [fold] |
| --- | --- | --- | --- | --- |
|  |  | C[C@@H](O)CC(=O)O [R-BHB, reference compound] | about 50% |  |
| dose-dependent inhibition | 7.3 | C[C@H](O)CC(=O)O [S-BHB, S-beta-hydroxybutyrate] |  | ≤ 2 |
